# Measured values: US7879566B2, “Methods for the identification of modulators of OSGPR114 or OSGPR78 activity, and their use in the treatment of disease” (OSI Pharmaceuticals, Inc., priority 2003, dated 2011)
# How the values were obtained:
# OSGPR114 [1] = target: T1, OSGPR114 (Homo sapiens, UniProt Q9H1C0); experiment: Yeast Fus1p-LacZ β-galactosidase reporter assay, OSGPR114-transformed yeast; type: cell-based; conditions: for effect on fluorescence (β-galactosidase reporter): yeast transformed with OSGPR114
# T1 construct: expressed in transfected cells; host or cells: engineered yeast (GPA1 replaced by G-alpha chimeras, STE3 deleted; Fus1p-LacZ reporters)
# Text: (§1) The yeast cell-based reporter assays have previously been described in the literature (e.g. see Miret J. J., et. al. (2002) J. Biol. Chem. 277:6881-6887; Campbell R. M., et. al. (1999) Bioorg Med. Chem. Lett. 9:2413-2418; King K., et. al. (1990) Science. 250:121-123); WO 99/14344; WO 00/12704; and U.S. Pat. No. 6,100,042). Briefly, yeast cells have been engineered such that the endogenous yeast G-alpha (GPA1) has been deleted and replaced with G-protein chimeras constructed using multiple techniques. Additionally the endogenous yeast alpha-cell GPCR, STE3 has been deleted to allow for a […] expression of a mammalian GPCR of choice. In the yeast, elements of the pheromone signaling transduction pathway, which are conserved in eukaryotic cells (for example, the mitogen-activated protein kinase pathway), drive the expression of Fus1. By placing β-galactosidase (LacZ) under the control of the Fus1 promoter (Fus1p), a system has been developed whereby receptor activation leads to an enzymatic read-out. Different yeast strains (e.g. FIG. 6) denote the presence of different G-alpha chimeras (see “yeast reporter assays” in Results section below for definitions).
# (§2) Yeast cells are transformed by an adaptation of the Lithium acetate method described by Agatep et.al. (Agatep, R., et. al. (1998) Transformation of Saccharomyces cerevisiae by the lithium acetate/single-stranded carrier DNA/polyethylene glycol (LiAc/ss-DNA/PEG) protocol. Technical Tips Online, Trends Journals, Elsevier). Briefly, yeast cells are grown overnight on yeast tryptone plates (YT). Carrier single-stranded DNA (10 μg), 2 μg of each of two Fus1p-LacZ reporter plasmids (one with URA3 selection marker and one with TRP1), 2 μg of OSGPR114 or OSGPR78 in yeast expression vector (2p origin of replication) and a lithium acetate/polyethylene glycol/TE buffer is pipetted into an Epindorf tube. The yeast expression plasmid containing the receptor/no receptor control has a LEU2 marker. Yeast cells are inoculated into this mixture and the reaction proceeds at 30° C. for 60 minutes. The yeast cells are then heat-shocked at 42° C. for 15 minutes. The cells are then washed and spread on selection plates. The selection plates are synthetic defined yeast media minus LEU, URA and TRP (SD-LUT). After incubating at 30° C. for 2-3 days, colonies that grow on the selection plates are then tested in the LacZ assay.
# (§3) In order to perform fluorometric enzyme assays for β-galactosidase, yeast cells were grown overnight in liquid SD-LUT media to an unsaturated concentration (i.e. the cells are still dividing and have not yet reached stationary phase). They are diluted in fresh media to an optimal assay concentration and 90 μL of yeast cells were added to 96-well black polystyrene plates (Costar). Compounds, dissolved in ethanol and diluted in a 1% BSA solution to 10× concentration, were added to the plates and the yeast are placed at 30° C. for 4 h. After 4 h, the substrate for the β-galactosidase is added to each well: The substrate may yield a fluorescent or calorimetric read-out upon the activity of the β-galactosidase. In these experiments, Fluorescein di(β-D-galactopyranoside) was used (FDG), a substrate for the enzyme that releases fluorescein, allowing a fluorometric read-out. 20 μL of 500 μM FDG was used. After incubation of the cells with the substrate for 30-60 mins, 20 μL of 1 M sodium carbonate is added to terminate the reaction and enhance the fluorescent signal. The plates were then read in a fluorometer at 485/535 nm. As an alternate read-out system, the yeast are also engineered with a Fus1p-HIS gene which means that activation of the receptor can also be measured through the growth of the yeast in a […] media.
# OSGPR78 = target: T2, OSGPR78 (Homo sapiens, UniProt P43657, I33V); experiment: Yeast Fus1p-LacZ β-galactosidase reporter assay, OSGPR78-transformed yeast; type: cell-based; conditions: yeast transformed with OSGPR78
# T2 construct: expressed in transfected cells; host or cells: engineered yeast (GPA1 replaced by G-alpha chimeras, STE3 deleted; Fus1p-LacZ reporters)
# T2 sequence (P43657 1-344 I33V): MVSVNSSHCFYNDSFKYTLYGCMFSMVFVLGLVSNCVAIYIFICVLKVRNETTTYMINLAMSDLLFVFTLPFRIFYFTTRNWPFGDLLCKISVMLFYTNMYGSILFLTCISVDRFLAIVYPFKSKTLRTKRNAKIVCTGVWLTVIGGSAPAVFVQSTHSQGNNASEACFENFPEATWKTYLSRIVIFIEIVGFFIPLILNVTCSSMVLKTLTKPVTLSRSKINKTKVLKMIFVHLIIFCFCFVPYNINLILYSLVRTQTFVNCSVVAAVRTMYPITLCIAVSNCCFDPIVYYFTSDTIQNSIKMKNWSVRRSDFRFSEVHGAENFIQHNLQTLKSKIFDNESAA
# Text: as §1, §2, §3
# [2] = system: vector transformed yeast cells; experiment: Yeast Fus1p-LacZ reporter assay, vector control (no receptor); type: cell-based; conditions: vector controls, same yeast strains
# Text: as §1, §2
# as §3, with “Compounds, dissolved in ethanol and diluted in a 1% BSA solution to 10× concentration, were added to the plates and the yeast are placed at 30° C. for 4 h.” left out, “20 μL of 500 μM FDG was used. After incubation of the cells with the substrate for 30-60 mins, 20 μL of 1 M sodium carbonate is added to terminate the reaction and enhance the fluorescent signal.” left out
# OSGPR114 [3] = target: T1, OSGPR114; experiment: [35S]-GTPγS binding, CHO-OSGPR114 membranes; type: biochemical; conditions: CHO-OSGPR114 versus CHO membranes
# Experimental: For example, in one method employed herein, membranes from untransfected CHO cells as well as OSGPR114 stable clones were prepared using the method described by Griffin et al (1998). Membranes were homogenized in buffer containing 50 mM Tris, 3 mM MgCl2, 100 mM NaCl, 1 mM EDTA, 1 uM GDP, 0.1% fatty acid free BSA, 0.01% Saponin, pH 7.4. Assays were carried out in a reaction mixture containing 50 mL of membrane suspension (5 mg/well), 50 mL of [^35S]-GTPgS binding (final concentration 0.5 nM: 50 mL aliquot counted to determine precise concentration employed) and either 50 mL of assay buffer, 50 mL of unlabeled GTPgS (defining nonspecific binding:final concentration is 10 mM) or 50 mL of each concentration of LPA. Incubations were carried out in triplicate for 60 minutes at 37° C. Reactions were terminated by rapid filtration over GF/B filters presoaked in ice cold wash buffer for 90 minutes. The filters were then washed 6 times with 0.3 mL of ice cold wash buffer (50 mM Tris, 5 mM MgCl2, pH 7.4). The filters were dried, covered with Microscint-20, dark adapted for 5 minutes, and counted on a 2 minute [^35S] protocol on a Packard TopCount LSC.
# endogenous CHO receptor = experiment: [35S]-GTPγS binding, parental CHO membranes; type: biochemical, hamster; conditions: 1 nM to 300 nM applied
# Experimental: For example, in one method employed herein, membranes from untransfected CHO cells as well as OSGPR114 stable clones were prepared using the method described by Griffin et al (1998). Membranes were homogenized in buffer containing 50 mM Tris, 3 mM MgCl2, 100 mM NaCl, 1 mM EDTA, 1 uM GDP, 0.1% fatty acid free BSA, 0.01% Saponin, pH 7.4. Assays were carried out in a reaction mixture containing […], 50 mL of [^35S]-GTPgS binding (final concentration 0.5 nM: 50 mL aliquot counted to determine precise concentration employed) and either 50 mL of assay buffer, 50 mL of unlabeled GTPgS (defining nonspecific binding:final concentration is […]) or 50 mL of each concentration of LPA. Incubations were carried out in triplicate for 60 minutes at 37° C. Reactions were terminated by rapid filtration over GF/B filters presoaked in ice cold wash buffer for 90 minutes. The filters were then washed 6 times with 0.3 mL of ice cold wash buffer (50 mM Tris, 5 mM MgCl2, pH 7.4). The filters were dried, covered with Microscint-20, dark adapted for 5 minutes, and counted on a 2 minute [^35S] protocol on a Packard TopCount LSC.
# OSGPR114 [4] = target: T1, OSGPR114; experiment: FLIPR intracellular calcium assay, CHO-OSGPR114 cells; type: cell-based; conditions: co-addition with LPA
# Experimental: For example, in one method employed herein, CHO and CHO-114 cells were seeded at a concentration of 50K cells/well in […] growth media in clear, flat-bottom 96-well black assay plates and incubated overnight at 37 C. The growth media is aspirated from the cells and a dye solution ([…]) added to each well. The dye solution consists of 2 mM probenecid, 2 mM HBSS, […] in a growth media minus antibiotics solution. The cells are loaded with the dye for 1 h at 37 C before aspiration and rinsing with wash buffer (20 mM HBSS+2 mM Probenecid). Compound plates are then prepared with 4× compound/control. 150 ul of wash buffer is added to each well. Once the FLIPR is fully calibrated, compound is added to the plate and the release of calcium measured using 0.4 exposure length and a laser set at 0.3W.
# T1 sequence (Q9H1C0 whole entry): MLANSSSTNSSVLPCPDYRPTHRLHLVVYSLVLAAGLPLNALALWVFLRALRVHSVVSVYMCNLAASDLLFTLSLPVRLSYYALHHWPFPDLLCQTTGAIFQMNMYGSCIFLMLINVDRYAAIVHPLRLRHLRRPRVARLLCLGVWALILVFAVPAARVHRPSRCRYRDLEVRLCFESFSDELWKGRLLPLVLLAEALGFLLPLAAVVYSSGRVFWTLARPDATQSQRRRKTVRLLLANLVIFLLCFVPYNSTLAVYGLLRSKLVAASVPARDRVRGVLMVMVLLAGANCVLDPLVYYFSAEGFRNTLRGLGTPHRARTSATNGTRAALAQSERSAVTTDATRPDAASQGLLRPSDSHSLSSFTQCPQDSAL
Molecule,effect on fluorescence (β-galactosidase reporter) (OSGPR114 [1]),effect on fluorescence (β-galactosidase reporter) (OSGPR78),response in yeast G-alpha chimera strains (OSGPR114 [1]; chimeras of Galpha q (20156) and Galphas (20202)),response in vector transformed yeast cells [2],response in vector transformed yeast cells ([2]; listed as oleoyl LPA),"Emax, GTPγS binding (OSGPR114 [3])",EC50 (endogenous CHO receptor),effect of co-addition on LPA calcium response (OSGPR114 [4])
Nc1ncnc2c1ncn2[C@@H]1O[C@H](COP(=O)(O)OP(=O)(O)O)[C@@H](O)[C@H]1O [ADP],no effect,no effect,–,–,–,–,–,–
Nc1ncnc2c1ncn2[C@@H]1O[C@H](COP(=O)(O)OP(=O)(O)OP(=O)(O)O)[C@@H](O)[C@H]1O [ATP],no effect,no effect,–,–,–,–,–,–
"CCCCCCCCC=CCCCCCCCC(=O)OCC(O)COP(=O)(O)O (centres unmarked) [Oleoyl LPA, oleoyl lysophosphatidic acid]",increase in fluorescence,increase in fluorescence,could produce a response,not in vector transformed cells,did not respond,comparable Emax values,768 nM,–
"CCCCCCCCCCCCCC(=O)OC[C@@H](O)COP(=O)(O)O [myristoyl LPA, myristoyl lysophosphatidic acid]",increase in fluorescence,increase in fluorescence,–,not in vector transformed cells,–,–,–,–
"CCCCCCCCCCCCCCCC(=O)OC[C@@H](O)COP(=O)(O)O [palmitoyl LPA, palmitoyl lysophosphatidic acid]",increase in fluorescence,increase in fluorescence,–,not in vector transformed cells,–,–,–,–
"CCCCCCCCCCCCCCCCCC(=O)OC[C@@H](O)COP(=O)(O)O [stearoyl LPA, stearoyl lysophosphatidic acid]",increase in fluorescence,increase in fluorescence,–,not in vector transformed cells,–,–,–,–
pertussis toxin,–,–,–,–,–,–,–,completely abolished this effect
platelet-activating factor [PAF],no effect,no effect,–,–,–,–,–,–
